Twelve compounds from ChEMBL document CHEMBL3745699, “Structural insights into mechanisms for inhibiting amyloid β42 aggregation by non-catechol-type flavonoids” (Bioorg Med Chem, 2016) can be followed below.

Series [1] concerns the target Amyloid-beta precursor protein (Homo sapiens) (UniProt P05067). The series is described as follows: Inhibition of nucleation phase of HFIP-treated 15N-labelled wild type Amyloid beta (1 to 42) (unknown origin) assessed as time required for nucleation at 50 uM by Thioflavin-T fluorescence assay in presence of fibril seed.
Series [2] can be described thus: Drug level treated with kaempferol after 4 hrs by LC/Q Tof-MS/MS analysis. Type of series: physicochemical.
Series [3] addresses Amyloid-beta precursor protein (Homo sapiens) (UniProt P05067). The series can be described thus: Inhibition of wild type amyloid beta (1 to 42) (unknown origin) aggregation at 50 uM by Thioflavin-T fluorescence assay.
A short description of series [4]: Drug degradation assessed as autoxidation at 500 uM at 4 degC after 4 hrs by UV-visible spectrophotometric analysis in presence of wild type Amyloid beta (1 to 42) (unknown origin). It counts as physicochemical.
In series [5] the target is Amyloid-beta precursor protein (Homo sapiens) (UniProt P05067). The series can be described thus: Inhibition of wild type Amyloid beta (1 to 42) (unknown origin) aggregation at 50 uM under ambient condition by Thioflavin-T fluorescence assay.
Sequence of Amyloid-beta precursor protein (Homo sapiens) (P05067 whole entry): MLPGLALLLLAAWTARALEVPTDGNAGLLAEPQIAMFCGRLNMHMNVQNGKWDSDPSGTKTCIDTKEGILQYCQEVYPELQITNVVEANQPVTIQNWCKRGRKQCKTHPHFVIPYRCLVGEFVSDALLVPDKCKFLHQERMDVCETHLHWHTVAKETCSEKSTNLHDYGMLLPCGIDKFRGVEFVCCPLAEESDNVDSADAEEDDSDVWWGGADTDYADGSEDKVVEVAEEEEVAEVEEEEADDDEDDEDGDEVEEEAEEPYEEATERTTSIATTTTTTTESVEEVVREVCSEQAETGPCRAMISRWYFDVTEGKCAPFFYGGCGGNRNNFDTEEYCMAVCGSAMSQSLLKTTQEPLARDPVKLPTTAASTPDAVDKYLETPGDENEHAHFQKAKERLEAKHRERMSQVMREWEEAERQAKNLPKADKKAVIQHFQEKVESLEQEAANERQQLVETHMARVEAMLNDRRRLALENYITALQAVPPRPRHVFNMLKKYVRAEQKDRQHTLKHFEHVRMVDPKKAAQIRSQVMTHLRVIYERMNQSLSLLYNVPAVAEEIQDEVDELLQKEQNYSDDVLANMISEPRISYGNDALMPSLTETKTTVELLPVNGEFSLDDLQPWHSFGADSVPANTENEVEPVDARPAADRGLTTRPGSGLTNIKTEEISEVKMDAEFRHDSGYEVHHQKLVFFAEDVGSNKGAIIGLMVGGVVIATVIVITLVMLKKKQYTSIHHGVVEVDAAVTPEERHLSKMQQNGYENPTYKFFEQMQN
Series [6] can be described thus: Stability of the compound assessed as compound remaining after 48 hrs by HPLC analysis. It counts as physicochemical. The note with it: read-out: Stability.
For series [7], the target named is Amyloid-beta precursor protein (Homo sapiens) (UniProt P05067). The series is described as follows: Inhibition of wild type Amyloid beta (1 to 42) (unknown origin) aggregation at 50 to 100 uM under anaerobic condition after 5 days by Thioflavin-T fluorescence assay.
For series [8] the target is unchanged. The note with it: 50 uM.
Description: Inhibition of wild type Amyloid beta (1 to 42) (unknown origin) aggregation at 50 uM after 48 hrs by TEM analysis
Series [9] has the same target. The series is described as follows: Inhibition of Amyloid beta (1 to 42) 13,14 A2 mutant (unknown origin) aggregation at 50 uM by Thioflavin-T fluorescence assay.
Series [10] shares this target. The series can be described thus: Inhibition of elongation phase of HFIP-treated 15N-labelled wild type Amyloid beta (1 to 42) (unknown origin) at 50 uM by Thioflavin-T fluorescence assay in presence of fibril seed.
Series [11] can be described thus: Drug degradation assessed as autoxidation at 50 uM under argon atmosphere at 37 degC after 2 to 48 hrs by UV-visible spectrophotometric analysis in presence of wild type Amyloid beta (1 to 42) (unknown origin). Type of series: physicochemical.
Series [12] in a line: Drug metabolism assessed as 2,4,6-trihydroxybenzaldehyde formation after 4 hrs by LC/Q Tof-MS/MS analysis. It counts as physicochemical.
Series [13] in a line: Drug degradation after 48 hrs by HPLC analysis. It counts as physicochemical. As to conditions: read-out: Drug degradation.
A short description of series [14]: Drug degradation assessed as autoxidation at 50 uM at 37 degC after 2 to 48 hrs by UV-visible spectrophotometric analysis in presence of wild type Amyloid beta (1 to 42) (unknown origin). Type of series: physicochemical.
The target in series [15] is Amyloid-beta precursor protein (Homo sapiens) (UniProt P05067). The note with it: 500 uM.
Description: Inhibition of elongation phase of HFIP-treated 15N-labelled wild type Amyloid beta (1 to 42) (unknown origin) at 500 uM by Thioflavin-T fluorescence assay in presence of fibril seed
Series [16] can be described thus: Drug degradation assessed as autoxidation at 500 uM at 4 degC after 1 hr by UV-visible spectrophotometric analysis in presence of wild type Amyloid beta (1 to 42) (unknown origin) relative to morin and datiscetin. Type of series: physicochemical. The note with it: read-out: Drug degradation.

Calls of active or inactive are those of the source. The calls are words filed in the database; no cut-off is given here.

Turning to `O=C(O)C(=O)c1ccc(O)cc1`, in series [1], the TIME is 3 h. Further, the Drug metabolism result in series [2] is on record as “metabolite_detected”. For the same compound, the inhibition result in series [3] was “Active”.
Regarding `O=C1Oc2cc(O)cc(O)c2C1=O`, in [1], the TIME was determined as 3 h. Further, the Drug metabolism entry in series [2] is “metabolite_detected”. Also, the inhibition result in [3] is “Active”.
Consider `O=C(O)C(=O)c1c(O)cc(O)cc1O`, for which the TIME in series [1] is 3 h. The Drug metabolism result in series [2] was “metabolite_detected”. Further, the inhibition result in series [3] was “Active”.
Consider `O=c1c(OOc2c(-c3ccc(O)cc3)oc3cc(O)cc(O)c3c2=O)c(-c2ccc(O)cc2)oc2cc(O)cc(O)c12`, for which the TIME in series [1] amounted to 3 h. The Drug metabolism entry in series [2] is on record as “metabolite_detected”. Besides, in [3], the inhibition result is “Active”.
As to `O=C(O)c1c(O)cc(O)cc1O`, in series [1], the TIME was determined as 3 h. For the same compound, the Drug metabolism entry in series [2] is “metabolite_detected”. The inhibition entry in [3] was “Active”.
The like results for `O=C1C(=O)C(O)(c2ccc(O)cc2)Oc2cc(O)cc(O)c21` (stereo not drawn) were, in that order, 3 h, “metabolite_detected” and “Active”.
The like results for `O=c1cc(-c2ccc(O)cc2)oc2cc(O)cc(O)c12` [APIGENIN] were, in that order, 3 h, “metabolite_detected” and “Active”.
Turning to `O=c1c(O)c(-c2ccccc2O)oc2cc(O)cc(O)c12` [DATISCETIN], the Stability entry in series [4] and in series [11] was “Stable” throughout. Besides, the inhibition entry in [5], in series [7], in [8], in [9] and in [10] was “Active” each time. The TIME in series [1] was 6 h. Also, the remaining at 48 h in series [6] is greater than 80%.
For `O=c1c(O)c(-c2ccc(O)cc2)oc2cc(O)cc(O)c12` [KAEMPFEROL], the inhibition entry in series [5], in series [7] and in series [15] was “Active” in each case. The TIME in [1] was 3 h. The Drug metabolism result in series [12] is “metabolite_detected”. In [13], the degraded at 48 h was greater than 80%. The Stability entry in series [14] is on record as “Unstable”; in [11] it was “Stable”. Besides, the degraded at 1 h, 500 µM in series [16] turned out to be 70%.
On to `O=c1c(O)c(-c2ccc(O)cc2O)oc2cc(O)cc(O)c12` [MORIN], for which the Stability result in series [4] and in [11] was “Stable” each time. In addition, the inhibition result in series [5], in [7], in series [9] and in series [10] was “Active” each time. Also, the TIME in series [1] was determined as 10 h. The remaining at 48 h in [6] is greater than 80%.
Consider `O=C(O)c1ccc(O)cc1` [PARABEN], for which the TIME in series [1] came out at 3 h. For the same compound, the Drug metabolism result in series [2] is listed as “metabolite_detected”. The inhibition result in [3] was “Active”.
As to `O=Cc1c(O)cc(O)cc1O` [PHLOROGLUCINALDEHYDE], the TIME in series [1] amounted to 3 h. The Drug metabolism entry in [2] is on record as “metabolite_detected”. Also, in [3], the inhibition result is “Active”.
